In paper PMC3701070 (PLoS ONE, 2013):
Read-outs that look alike come from different tables or passages of the source.

Assays:
[1] = biological target: T1, BRAF (Canis lupus familiaris, UniProt A0A8I3SCX1); assay: BRAF/CRAF-activated MEK ATPase coupled assay; assay type: biochemical; details: Enzyme BRAF, Dog
T1 construct: Full-length BRAF genes were tagged with 6×His-SBP; 6xHis-SBP; made in house; host or cells: HEK293F
Description: (§1) Various BRAF orthologs (human, cynomolgus monkey, dog, rat) were cloned in-house. […] Full-length BRAF genes were tagged with 6×His-SBP and transiently transfected in a HEK293F expression system (Invitrogen K9000-01 protocol). Transfected cells were incubated at 37°C, 5% CO2 on a shaker at 80 r.p.m. for 48 h and harvested by centrifugation. BRAF proteins were purified by UltraLink®-immobilized Streptavidin affinity and Superdex™ 200 size exclusion chromatography.
(§2) N-terminal GST-tagged MEK1 was expressed in BL21[DE3]/pRR692 cells and purified by Glutathione Sepharose™ 4FF and Q-Sepharose™ chromatography. The GST tag was cleaved with TEV protease and MEK1 was purified on a Superdex™ 200 column.

[2] = biological target: BRAF (Macaca fascicularis, UniProt A0A7N9IA21); assay: BRAF/CRAF-activated MEK ATPase coupled assay; assay type: biochemical; details: Enzyme BRAF, Cyno
BRAF (Macaca fascicularis, UniProt A0A7N9IA21), sequence (A0A7N9IA21 entry or part of it): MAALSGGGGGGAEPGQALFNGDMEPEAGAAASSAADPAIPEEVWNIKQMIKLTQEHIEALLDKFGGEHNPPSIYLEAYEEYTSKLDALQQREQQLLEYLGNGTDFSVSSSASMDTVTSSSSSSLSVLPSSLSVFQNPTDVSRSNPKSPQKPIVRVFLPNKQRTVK
Description: as §1, §2

[3] = biological target: T2, BRAF (Rattus norvegicus, UniProt A0A8I6AFV6); assay: BRAF/CRAF-activated MEK ATPase coupled assay; assay type: biochemical; details: Enzyme BRAF
T2 construct: Full-length BRAF genes were tagged with 6×His-SBP; 6xHis-SBP; made in house; host or cells: HEK293F
T2 sequence (A0A8I6AFV6 1-804): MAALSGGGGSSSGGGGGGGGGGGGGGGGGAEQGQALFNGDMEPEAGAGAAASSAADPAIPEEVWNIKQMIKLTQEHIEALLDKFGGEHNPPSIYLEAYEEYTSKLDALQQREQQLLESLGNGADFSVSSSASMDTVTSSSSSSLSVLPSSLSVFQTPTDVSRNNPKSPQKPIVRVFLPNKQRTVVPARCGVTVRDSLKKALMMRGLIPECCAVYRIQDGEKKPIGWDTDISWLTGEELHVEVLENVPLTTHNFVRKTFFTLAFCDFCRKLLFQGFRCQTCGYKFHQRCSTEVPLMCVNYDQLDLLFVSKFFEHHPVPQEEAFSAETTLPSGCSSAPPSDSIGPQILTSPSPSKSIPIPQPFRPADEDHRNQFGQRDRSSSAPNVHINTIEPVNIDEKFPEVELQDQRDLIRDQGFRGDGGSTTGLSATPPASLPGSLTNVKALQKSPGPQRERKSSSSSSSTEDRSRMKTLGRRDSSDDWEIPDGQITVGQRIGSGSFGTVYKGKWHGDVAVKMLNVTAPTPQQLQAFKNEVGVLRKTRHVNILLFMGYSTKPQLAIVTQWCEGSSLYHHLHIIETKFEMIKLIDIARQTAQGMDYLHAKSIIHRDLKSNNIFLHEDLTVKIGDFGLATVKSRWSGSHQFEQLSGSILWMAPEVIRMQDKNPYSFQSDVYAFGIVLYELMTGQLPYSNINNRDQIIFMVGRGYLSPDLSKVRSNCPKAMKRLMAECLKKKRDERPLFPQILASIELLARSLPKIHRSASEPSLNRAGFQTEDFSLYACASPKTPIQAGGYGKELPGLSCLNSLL
Description: as §1, §2

[4] = test system: pMEK in A375P (BRAF^V600E) cells; assay: Western blot, pMEK in A375P cells; assay type: cell-based; details: Homo sapiens, 8 nM, 1 h
Description: Cells were lysed in 25 mM Tris-HCl pH 7.5, 2 mM EDTA, 2 mM EGTA, 1% Triton X-100, 0.1% SDS, 50 mM sodium-β-glycerophosphate, 2 mM Na3VO4, 12.5 mM sodium pyrophosphate, 2× Complete EDTA-free mini protease inhibitor tablets (Roche), 2× phosphatase inhibitor cocktails I and II (Sigma-Aldrich). Protein concentrations were determined by Bio-Rad DC™ or dye-based protein assays and lysates were resolved by SDS-PAGE (Invitrogen NuPAGE®) and transferred to PVDF membranes. Membranes were blocked with Odyssey® (LI-COR Biosciences) blocking buffer and incubated with primary antibodies overnight at 4°C. Blots were washed with PBS containing 0.1% Tween-20, incubated with secondary antibodies, and washed again prior to signal detection on a LI-COR Odyssey® reader.
siRNA complexes were prepared per the manufacturer's instructions using Dharmacon RNAi duplex (Thermo Fisher Scientific), Lipofectamine™ RNAiMAX™ (Invitrogen), and Opti-MEM® (Gibco) and allowed to form at room temperature for at least 40 min. Volumes of 1 mL of RNAi complex were added to each well of a plate with 150 000 cells in complete medium (no antibiotic) and incubated at 37°C, 5% CO2 for the indicated times.
Lysates were immunoblotted for the proteins indicated.

[5] = test system: A375P tumor xenografts (BRAF^V600E); assay: Pharmacodynamic markers in A375P tumor xenografts; assay type: in vivo; details: A375P xenograft, mice, 30 mg/kg oral once daily
Description: Tumors were harvested, homogenized (BD Bioscience Medimachine) in 1 mL each of ice-cold Western Blot Analysis buffer containing 4 mM sodium pyrophosphate, then centrifuged (18 000×g, 15 min, 4°C), and flash-frozen. Samples were analyzed by duplex ELISA (MesoScale Discovery) for total and phospho ERK1/2 per the manufacturer’s instructions using an MSD SI6000 reader.
A375P tumors were harvested at 6 h after the sixth daily dose with compound or vehicle, cut into samples of ∼100 mm^3 in volume, fixed in 10% neutral-buffered formalin (NBF, VWR) for 24 h, and transferred into 70% ethanol prior to paraffin embedding. Paraffin-embedded blocks were sectioned (4 µm to 5 µm) and immunostained for ppERK, Ki67, and p27^Kip1 by Mosaic Laboratories (Lake Forest, CA).
Phospho-ERK (pERK) is normalized to total ERK (tERK). Tumors harvested 6h post-last 6th dose were stained for Ki67, p27, and ppERK by immunohistochemistry and compared with pre-treatment controls (B). Data are representative of n = 3 studies and percent changes were calculated from the ratio of positively stained cells following drug treatment to those following vehicle control treatment, each as a percentage of the total cell population.

[6] = Pharmacokinetic analysis in tumor-bearing mice; details: 30 mg/kg oral once daily, blood
Description: Compound concentrations were determined from flash-frozen hemolyzed blood samples (blood:water ratio of 1∶1) or tumor homogenates (tumor:water ratio of 1∶4) by HPLC/MS-MS analysis.

[7] = test system: 195 tumor cell lines; assay: Cell growth assay, summary over 195 tumor cell lines; assay type: cell-based; details: Homo sapiens, read-out: gIC50
Description: Growth was measured with CellTiter-Glo® (Promega) reagent per the manufacturer’s protocol, using a PerkinElmer EnVision™ reader at t = 0 and 72 h. IC50 values for cell growth inhibition (gIC50) were determined.
The functional selectivity of dabrafenib was evaluated by measuring the growth of a range of human tumor cell lines of different genetic mutation status.
(PDF) Click here for additional data file.

T1 sequence (A0A8I3SCX1 1-803): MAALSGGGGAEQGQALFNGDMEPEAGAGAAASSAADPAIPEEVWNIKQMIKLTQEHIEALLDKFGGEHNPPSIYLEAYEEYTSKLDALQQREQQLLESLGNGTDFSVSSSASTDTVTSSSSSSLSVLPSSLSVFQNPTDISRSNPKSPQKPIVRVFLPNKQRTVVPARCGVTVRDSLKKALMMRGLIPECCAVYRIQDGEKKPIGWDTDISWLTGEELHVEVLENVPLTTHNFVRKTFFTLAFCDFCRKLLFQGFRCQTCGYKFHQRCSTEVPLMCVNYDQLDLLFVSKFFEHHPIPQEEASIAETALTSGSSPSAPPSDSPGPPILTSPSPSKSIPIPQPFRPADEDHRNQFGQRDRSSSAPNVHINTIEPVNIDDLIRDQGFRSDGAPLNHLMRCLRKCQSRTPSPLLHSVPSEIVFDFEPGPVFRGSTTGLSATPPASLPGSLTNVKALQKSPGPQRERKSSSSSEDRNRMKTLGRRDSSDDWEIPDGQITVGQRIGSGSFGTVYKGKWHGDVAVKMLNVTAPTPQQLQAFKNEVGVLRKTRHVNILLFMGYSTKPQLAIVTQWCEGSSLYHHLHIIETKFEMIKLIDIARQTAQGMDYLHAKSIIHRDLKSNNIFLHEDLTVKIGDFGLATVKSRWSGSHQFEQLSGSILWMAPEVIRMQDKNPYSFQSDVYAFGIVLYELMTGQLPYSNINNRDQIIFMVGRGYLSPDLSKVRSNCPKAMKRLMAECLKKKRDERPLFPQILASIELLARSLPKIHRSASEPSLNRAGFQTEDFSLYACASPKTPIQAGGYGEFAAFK

## CC(C)(C)c1nc(-c2cccc(NS(=O)(=O)c3c(F)cccc3F)c2F)c(-c2ccnc(N)n2)s1 [dabrafenib]
[1]
  IC50: 4 nM
[2]; read-out: IC50
  IC50: 4 nM
[2]; read-out: pIC50 +/- std. dev. (converted)
  IC50: 3.98 nM
[3]
  IC50: 4 nM
[4]
  inhibition at 0.008 µM: > 90%
[5]; 6 h after sixth dose
  downregulation of Ki67 in tumors, immunohistochemistry: 28%
  downregulation of pERK (ppERK) in tumors, immunohistochemistry: 89%
  upregulation of p27 in tumors, immunohistochemistry: 54%
[5]; after 7 and 14 days of dosing
  time post-dosing for which reduction of tumor pERK is sustained: up to 18 h
[6]
  oral bioavailability: orally bioavailable
[7]; 133 (88%) of the 152 RAS/RAF wild-type and all 18 mutant RAS cell lines
  IC50: > 10000 nM
[7]; A673, 3 of the BRAF^V600E cell lines (GCT, RKO, A673)
  IC50: > 2000 nM
[7]; sixteen (80%) of the 20 cell lines encoding BRAF^V600E
  IC50: < 200 nM
